{"source": "paper PMC11149917", "about": "“Translational and Therapeutic Evaluation of RAS-GTP Inhibition by RMC-6236 in RAS-Driven Cancers” (Cancer Discovery, 2024)", "key": {"[1]": {"tested_on": "pERK in Capan-2 xenograft tumors", "experiment": "IHC whole-slide quantification", "format": "in vivo, mouse", "details": "for pERK (% positive area): control 32.3", "protocol": "All tissues were fixed for up to 24 hours using 10% neutral buffered formalin and then moved to 70% ethanol for long-term storage. FFPE sections (4 µm) were stained on the Biocare intelliPATH automated staining platform using the manufacturer’s recommended settings.\nAnti–phospho-p44/42 MAPK (Erk1/2; Thr202/Tyr204) rabbit monoclonal antibody (Cell Signaling Technology, cat no. 4370, clone: D13.14.4E) was used at 1:200 with citrate-based pH 6.2 heat-induced epitope retrieval; an isotype control (rabbit IgG) was used under the same conditions.\nAll tissue sections were incubated with Biocare Peroxidase Blocker (Biocare, cat no. PX968) and Background Punisher (Biocare, cat no. BP974M) to block nonspecific background. MACH4 HRP-polymer Detection System (Biocare, cat no. MRH534) was used to detect rabbit primary antibodies.\nDAB-stained slides were scanned and digitized with a Huron TissueScope LE120 whole-slide scanner at 200× magnification.\nThe EpCAM staining was used to identify epithelial cells. First, the area to be analyzed was delineated, excluding necrotic regions. The random forest tumor classifier from the HALO Image Analysis package was used to identify the tumor compartment. Three classes were created: glass, tumor (EpCAM-positive), and stroma. The tumor class mark was then copied onto the serial sections stained with various markers to perform the image analysis only on the tumor compartment.\nQuantification of P-ERK and pS6 was performed with the HALO Image Analysis software from Indica labs using the Area Quantification module. The analysis was performed only on the tumor compartment copied from the EpCAM slide. The software was tuned to detect positive DAB staining (brown color). Percentage of area positivity was chosen to represent the results (area positive for brown/total area); and subjected to statistical analysis using GraphPad Prism (Dunnett multiple comparisons test)."}, "[2]": {"tested_on": "panel of 78 cancer cell lines", "experiment": "Cell panel 3D methylcellulose CellTiter-Glo proliferation", "format": "cell-based", "details": "Homo sapiens", "protocol": "A panel of 78 cancer cell lines harboring mutant and wild-type RAS was selected for screening at Crown Bioscience (Supplementary Table S2). The panel consisted of cell lines with any substitution at position 12 of KRAS, cell lines with any substitutions at position 61 of NRAS, and cell lines with a BRAF^V600E mutation. […] Cells were incubated for 120 hours prior to measurement of adenosine triphosphate (ATP) levels using the CellTiter-Glo Luminescent Cell Viability Assay (CTG; Promega, G7572), a method of determining the number of metabolically active cells based on quantitation of cellular ATP, according to the manufacturer's instructions. To measure induction of apoptosis, cells were incubated with RMC-6236 for 48 hours prior to measuring cleavage of a proluminescent caspase-3/7 DEVD-aminoluciferin substrate using the CaspaseGlo-3/7 Assay (Promega, G8092) according to the manufacturer’s instructions."}}, "note": "Like-named read-outs stand apart in the source and are kept apart here.", "data": [{"compound": "CCn1c(-c2cc(N3CCN(C)CC3)cnc2[C@H](C)OC)c2c3cc(ccc31)-c1csc(n1)C[C@H](NC(=O)[C@H]1C[C@@H]1C)C(=O)N1CCC[C@H](N1)C(=O)OCC(C)(C)C2", "note": "[RMC-6236]", "values": [{"measurement": "pERK (% positive area)", "setting": "[1]; Capan-2 (3 mg/kg), 8h", "value": 7.6, "unit": "%"}, {"measurement": "pERK (% positive area)", "setting": "[1]; Capan-2 (3 mg/kg), 24h", "value": 14.0, "unit": "%"}, {"measurement": "pERK (% positive area)", "setting": "[1]; Capan-2 (3 mg/kg), 48hr", "value": 17.6, "unit": "%"}, {"measurement": "pERK (% positive area)", "setting": "[1]; Capan-2 (10 mg/kg), 8h", "value": 2.8, "unit": "%"}, {"measurement": "pERK (% positive area)", "setting": "[1]; Capan-2 (10 mg/kg), 24h", "value": 3.7, "unit": "%"}, {"measurement": "pERK (% positive area)", "setting": "[1]; Capan-2 (10 mg/kg), 48hr", "value": 14.3, "unit": "%"}, {"measurement": "pERK (% positive area)", "setting": "[1]; Capan-2 (25 mg/kg x 7d), 8h", "value": 4.4, "unit": "%"}, {"measurement": "pERK (% positive area)", "setting": "[1]; Capan-2 (25 mg/kg x 7d), 24h", "value": 9.2, "unit": "%"}, {"measurement": "pERK (% positive area)", "setting": "[1]; Capan-2 (25 mg/kg x 7d), 48hr", "value": 18.9, "unit": "%"}, {"measurement": "pERK (% positive area)", "setting": "[1]; Capan-2 (25 mg/kg), 8h", "value": 3.1, "unit": "%"}, {"measurement": "pERK (% positive area)", "setting": "[1]; Capan-2 (25 mg/kg), 24h", "value": 6.3, "unit": "%"}, {"measurement": "pERK (% positive area)", "setting": "[1]; Capan-2 (25 mg/kg), 48hr", "value": 14.8, "unit": "%"}, {"measurement": "inhibition at 25 mg/kg", "setting": "[1]; Mus musculus, Capan-2, 25 mg/kg, up to 24 hours post-dose, read-out: inhibition of pERK levels in tumors (IHC)", "value": "> 80", "unit": "%"}, {"measurement": "EC50", "setting": "[2]; A549, A549, KRAS G12S, Lung, read-out: Proliferation Inhibition (EC50)", "value": 0.0546, "unit": "µM"}, {"measurement": "EC50", "setting": "[2]; A-375, A375, BRAF V600E, Skin, read-out: Proliferation Inhibition (EC50)", "value": "> 0.1", "unit": "µM"}, {"measurement": "EC50", "setting": "[2]; A-427, A427, KRAS G12D, Lung, read-out: Proliferation Inhibition (EC50)", "value": 0.0976, "unit": "µM"}, {"measurement": "EC50", "setting": "[2]; AGS, KRAS G12D, Stomach, read-out: Proliferation Inhibition (EC50)", "value": 0.0032, "unit": "µM"}, {"measurement": "EC50", "setting": "[2]; ASH3, NRAS Q61R, Head and Neck/Thyroid, read-out: Proliferation Inhibition (EC50)", "value": 0.0914, "unit": "µM"}, {"measurement": "EC50", "setting": "[2]; ASPC1, ASPC1, KRAS G12D, Pancreas, read-out: Proliferation Inhibition (EC50)", "value": 0.0069, "unit": "µM"}, {"measurement": "EC50", "setting": "[2]; CAL-62, CAL62, KRAS G12R, Head and Neck/Thyroid, read-out: Proliferation Inhibition (EC50)", "value": 0.019, "unit": "µM"}, {"measurement": "EC50", "setting": "[2]; CAPAN-1, CAPAN1, KRAS G12V, Pancreas, read-out: Proliferation Inhibition (EC50)", "value": 0.0046, "unit": "µM"}, {"measurement": "EC50", "setting": "[2]; CFPAC-1, CFPAC1, KRAS G12V, Pancreas, read-out: Proliferation Inhibition (EC50)", "value": 0.0152, "unit": "µM"}, {"measurement": "EC50", "setting": "[2]; CHP-212, CHP212, NRAS Q61K, Brain and Nerves, read-out: Proliferation Inhibition (EC50)", "value": 0.0219, "unit": "µM"}, {"measurement": "EC50", "setting": "[2]; COLO 201, COLO201, BRAF V600E, Intestine/Large/Colorectum, read-out: Proliferation Inhibition (EC50)", "value": "> 0.1", "unit": "µM"}, {"measurement": "EC50", "setting": "[2]; COR-L23, CORL23, KRAS G12V, Lung, read-out: Proliferation Inhibition (EC50)", "value": 0.0086, "unit": "µM"}, {"measurement": "EC50", "setting": "[2]; Calu-1, CALU1, KRAS G12C, Lung, read-out: Proliferation Inhibition (EC50)", "value": 0.0021, "unit": "µM"}, {"measurement": "EC50", "setting": "[2]; Capan-2, CAPAN2, KRAS G12V, Pancreas, read-out: Proliferation Inhibition (EC50)", "value": 0.0058, "unit": "µM"}, {"measurement": "EC50", "setting": "[2]; CoC1, COC1, KRAS G12D, Ovary, read-out: Proliferation Inhibition (EC50)", "value": 0.0571, "unit": "µM"}, {"measurement": "EC50", "setting": "[2]; HCC15, HCC15, NRAS Q61K, Lung, read-out: Proliferation Inhibition (EC50)", "value": "> 0.1", "unit": "µM"}, {"measurement": "EC50", "setting": "[2]; HCC44, HCC44, KRAS G12C, Lung, read-out: Proliferation Inhibition (EC50)", "value": 0.0033, "unit": "µM"}, {"measurement": "EC50", "setting": "[2]; HEC-1-A, HEC1A, KRAS G12D, Uterus, read-out: Proliferation Inhibition (EC50)", "value": 0.0448, "unit": "µM"}, {"measurement": "EC50", "setting": "[2]; HM7, KRAS G12D, Intestine/Large/Colorectum, read-out: Proliferation Inhibition (EC50)", "value": "> 0.1", "unit": "µM"}, {"measurement": "EC50", "setting": "[2]; HPAC, KRAS G12D, Pancreas, read-out: Proliferation Inhibition (EC50)", "value": 0.0743, "unit": "µM"}, {"measurement": "EC50", "setting": "[2]; HPAF-II, HPAFII, KRAS G12D, Pancreas, read-out: Proliferation Inhibition (EC50)", "value": 0.0063, "unit": "µM"}, {"measurement": "EC50", "setting": "[2]; HT-1080, HT1080, NRAS Q61K, Soft tissue, read-out: Proliferation Inhibition (EC50)", "value": 0.0075, "unit": "µM"}, {"measurement": "EC50", "setting": "[2]; HepG2, HEPG2, NRAS Q61L, Liver, read-out: Proliferation Inhibition (EC50)", "value": 0.0228, "unit": "µM"}, {"measurement": "EC50", "setting": "[2]; HuCCT-1, HUCCT1, KRAS G12D, Liver/Bile duct, read-out: Proliferation Inhibition (EC50)", "value": 0.0257, "unit": "µM"}, {"measurement": "EC50", "setting": "[2]; HuP-T4, HUPT4, KRAS G12V, Pancreas, read-out: Proliferation Inhibition (EC50)", "value": 0.019, "unit": "µM"}, {"measurement": "EC50", "setting": "[2]; KP4, KRAS G12D, Pancreas, read-out: Proliferation Inhibition (EC50)", "value": 0.0311, "unit": "µM"}, {"measurement": "EC50", "setting": "[2]; KRAS^G12X cells, read-out: median EC50, cell growth inhibition", "value": 0.008, "unit": "µM"}, {"measurement": "EC50", "setting": "[2]; KYSE-410, KYSE410, KRAS G12C, HN/Esophagus, read-out: Proliferation Inhibition (EC50)", "value": 0.0632, "unit": "µM"}, {"measurement": "EC50", "setting": "[2]; LCLC-97TM1, LCLC97TM1, KRAS G12V, Lung, read-out: Proliferation Inhibition (EC50)", "value": 0.0011, "unit": "µM"}, {"measurement": "EC50", "setting": "[2]; LS174T, KRAS G12D, Intestine/Large/Colorectum, read-out: Proliferation Inhibition (EC50)", "value": "> 0.1", "unit": "µM"}, {"measurement": "EC50", "setting": "[2]; LS180, LS180, KRAS G12D, Intestine/Large/Colorectum, read-out: Proliferation Inhibition (EC50)", "value": 0.0871, "unit": "µM"}, {"measurement": "EC50", "setting": "[2]; LS-123, LS123, KRAS G12S, Intestine/Large/Colorectum, read-out: Proliferation Inhibition (EC50)", "value": 0.0038, "unit": "µM"}, {"measurement": "EC50", "setting": "[2]; LS-513, LS513, KRAS G12D, Intestine/Large/Colorectum, read-out: Proliferation Inhibition (EC50)", "value": 0.0071, "unit": "µM"}, {"measurement": "EC50", "setting": "[2]; MIA PaCa-2, MIAPACA2, KRAS G12C, Pancreas, read-out: Proliferation Inhibition (EC50)", "value": 0.0618, "unit": "µM"}, {"measurement": "EC50", "setting": "[2]; NCI-H23, NCIH23, KRAS G12C, Lung, read-out: Proliferation Inhibition (EC50)", "value": 0.0071, "unit": "µM"}, {"measurement": "EC50", "setting": "[2]; NCI-H358, NCIH358, KRAS G12C, Lung, read-out: Proliferation Inhibition (EC50)", "value": 0.0039, "unit": "µM"}, {"measurement": "EC50", "setting": "[2]; NCI-H441, NCIH441, KRAS G12V, Lung, read-out: Proliferation Inhibition (EC50)", "value": 0.0026, "unit": "µM"}]}]}
